According to patent publication US11254651B2, “Histone methyltransferase inhibitors” (GLOBAL BLOOD THERAPEUTICS, INC., priority 2016, dated 2022):
Where a name gives a salt, the structure may show the parent alone.

Each compound was assayed against T1, G9a (Homo sapiens, UniProt Q96KQ7) (assay: G9a AlphaLISA enzymatic activity assay). Details: 0.15 nM G9a, 15 uM S-adenosyl-methionine, 100 nM biotinylated histone 3 peptide (1-21), 1 hour room temperature.
T1 sequence (Q96KQ7 1-1210): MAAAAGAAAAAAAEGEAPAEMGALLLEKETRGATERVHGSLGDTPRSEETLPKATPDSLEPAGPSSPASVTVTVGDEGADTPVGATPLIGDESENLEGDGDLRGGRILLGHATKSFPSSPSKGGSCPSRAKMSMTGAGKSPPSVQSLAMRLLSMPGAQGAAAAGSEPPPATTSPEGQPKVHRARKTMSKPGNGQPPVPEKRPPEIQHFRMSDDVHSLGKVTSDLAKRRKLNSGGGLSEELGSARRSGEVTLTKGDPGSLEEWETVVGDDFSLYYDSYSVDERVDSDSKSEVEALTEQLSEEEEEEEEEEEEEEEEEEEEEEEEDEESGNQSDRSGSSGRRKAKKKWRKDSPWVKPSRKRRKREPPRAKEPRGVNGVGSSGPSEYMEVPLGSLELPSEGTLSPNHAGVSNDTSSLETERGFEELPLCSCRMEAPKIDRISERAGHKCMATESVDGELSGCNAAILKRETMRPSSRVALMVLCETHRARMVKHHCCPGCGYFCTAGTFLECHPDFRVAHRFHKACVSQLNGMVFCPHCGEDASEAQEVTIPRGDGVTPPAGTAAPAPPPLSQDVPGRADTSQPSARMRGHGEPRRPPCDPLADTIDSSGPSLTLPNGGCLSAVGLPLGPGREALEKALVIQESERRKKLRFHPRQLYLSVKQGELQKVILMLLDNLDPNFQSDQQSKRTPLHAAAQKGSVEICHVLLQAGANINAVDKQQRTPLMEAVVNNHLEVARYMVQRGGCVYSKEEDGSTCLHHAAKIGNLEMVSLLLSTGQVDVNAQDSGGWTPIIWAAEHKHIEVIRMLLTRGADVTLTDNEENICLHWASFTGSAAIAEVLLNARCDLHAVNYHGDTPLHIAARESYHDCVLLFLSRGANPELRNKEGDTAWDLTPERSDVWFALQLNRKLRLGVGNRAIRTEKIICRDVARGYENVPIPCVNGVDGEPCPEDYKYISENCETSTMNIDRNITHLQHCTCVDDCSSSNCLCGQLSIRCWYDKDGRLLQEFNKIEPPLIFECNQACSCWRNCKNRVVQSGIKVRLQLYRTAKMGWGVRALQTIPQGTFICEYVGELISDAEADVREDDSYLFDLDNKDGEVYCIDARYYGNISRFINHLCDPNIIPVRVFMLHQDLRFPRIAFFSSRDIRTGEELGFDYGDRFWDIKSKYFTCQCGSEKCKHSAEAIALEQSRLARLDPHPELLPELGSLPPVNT
Assay type: biochemical
Excerpt: The G9a AlphaLISA assay was used to detect the methyl modifications of a biotinylated histone H3 peptide by the compounds. These modifications are done by the histone methyl transferase activity of the G9a enzyme. The assay consists of reading a chemiluminescent signal at 615 nm; this signal is generated by a laser excitation at 680 nm that transfers a reactive singlet oxygen between the donor beads and acceptor beads. Donor beads are streptavidin conjugated and bind to the biotin on the peptide. Acceptor beads are conjugated with an antibody that recognizes the specific G9a methyl mark on the peptide. If there is a methyl mark on the peptide, the acceptor beads will bind to the peptide. Upon binding, the acceptor beads will be in close proximity (<200 nm) of the donor beads and when the donor beads are excited, the transfer of the oxygen can occur and a strong signal will be generated. If there is no methyl mark, the interaction between beads will not occur and signal will be at background levels.
For the assay, the following buffer was used to set up reactions: 50 mM Tris-HCl pH9, 50 mM NaCl, 0.01% Tween-20 and 1 mM DTT (added fresh prior to starting the reactions). The assay is set up by adding a final concentration of 0.15 nM G9a, 15 uM S-adenosyl-methionine and, 100 nM biotinylated histone 3 peptide (1-21). The reaction is incubated at room temperature for 1 hour, and subsequently quenched by the addition of the acceptor beads (anti-H3k9me2 AlphaLISA acceptor beads, PerkinElmer #AL117) at a final concentration of 20 ug/mL. The acceptor beads are incubated for 1 hour. After 1 hour, the donor beads are added at a final concentration of 20 ug/mL (Alpha Streptavidin donor beads, PerkinElmer #6760002). Donor beads are incubated for 0.5 hours. Both donor and acceptor beads are resuspended in AlphaLISA 5X Epigenetics Buffer 1 Kit (PerkinElmer #AL008) prior to addition to the reaction. All manipulations and incubations with the donor and acceptor beads are done in subdued light. Signal is detected in an EnVision plate reader in Alpha mode (see ACS Med Chem Lett. 2014 Jan. 2; 5(2):205-9. doi: 10.1021/m1400496h. eCollection 2014. Discovery and development of potent and selective inhibitors of histone methyltransferase g9a.)
Percent inhibition was calculated for each compound dilution and the concentration that produced 50% inhibition was calculated. This value is presented as the IC50.
For `COCCCNc1c2c(nc3cc(OCCCN4CCCC4)c(OC)cc13)CCC2` [Entry 73, 7-methoxy-N-(3-methoxypropyl)-6-[3-(pyrrolidin-1-yl)propoxy]-1H,2H,3H-cyclopenta[b]quinolin-9-amine formate], the IC50 was 11.2 nM. `CNc1c2ccccc2nc2cc(OCCCN3CCCC3)c(Cl)cc12` [Entry 9, 2-chloro-N-methyl-3-[3-(pyrrolidin-1-yl)propoxy]acridin-9-amine formate] showed an IC50 of 26.1 nM. For `COc1cc2c(NC3CCC(C)(O)CC3)c3ccccc3nc2cc1OCCCN1CCCC1` [Entry 99, (1R,4R)-4-({2-methoxy-3-[3-(pyrrolidin-1-yl)propoxy]acridin-9-yl}amino)-1-methylcyclohexan-1-ol trifluoroacetate], the IC50 was 17 nM. In the case of `COc1cc2c(Nc3ccn(C)n3)c3c(nc2cc1OCCCN1CCCC1)CCC3` [Entry 70, N-{7-methoxy-6-[3-(pyrrolidin-1-yl)propoxy]-1H,2H,3H-cyclopenta[b]quinolin-9-yl}-1-methyl-1H-pyrazol-3-amine formate], the IC50 is reported as 35.8 nM. For `COc1cc2c(O)c3ccccc3nc2cc1OCCCN1CCCC1` [Entry 6, 2-methoxy-3-[3-(pyrrolidin-1-yl)propoxy]acridin-9-ol formate], the IC50 was 42 nM. In the case of `COc1cc2c(NCC3CC3)c3c(nc2cc1OCC1CCN(C)C1)CCC3` (stereo not shown) [Entry 52, N-(cyclopropylmethyl)-7-methoxy-6-[(1-methylpyrrolidin-3-yl)methoxy]-1H,2H,3H-cyclopenta[b]quinolin-9-amine formate], the IC50 is reported as 65 nM. Work on `COc1ccc2nc3cc(OCCCN4CCCC4)c(OC)cc3c(NC3CCOCC3)c2c1` [Entry 115, 2,7-dimethoxy-N-(oxan-4-yl)-3-[3-(pyrrolidin-1-yl)propoxy]acridin-9-amine trifluoroacetate] yielded an IC50 of 215 nM. For `COc1cc2c(NC3CNC(=O)C3)c3c(nc2cc1OCCCN1CCCC1)CCC3` (stereo not shown) [Entry 60, 4-({7-methoxy-6-[3-(pyrrolidin-1-yl)propoxy]-1H,2H,3H-cyclopenta[b]quinolin-9-yl}amino)pyrrolidin-2-one trifluoroacetate], the IC50 was 14.6 nM. With `COc1cc2c(NCC(=O)O)c3ccccc3nc2cc1OCCCN1CCCC1` [Entry 104, 2-({2-methoxy-3-[3-(pyrrolidin-1-yl)propoxy]acridin-9-yl}amino)acetic acid formate] the IC50 was 134 nM. With `COC(=O)N1CC(CNc2c3c(nc4cc(OCCCN5CCCC5)c(OC)cc24)CCC3)C1` [Entry 71, methyl 3-[({7-methoxy-6-[3-(pyrrolidin-1-yl)propoxy]-1H,2H,3H-cyclopenta[b]quinolin-9-yl}amino)methyl]azetidine-1-carboxylate formate] the IC50 was 17 nM. `COc1cc2c(NC(C3CC3)C3CC3)c3c(nc2cc1OCCCN1CCCC1)CCC3` [Entry 65, N-(dicyclopropylmethyl)-7-methoxy-6-[3-(pyrrolidin-1-yl)propoxy]-1H,2H,3H-cyclopenta[b]quinolin-9-amine formate] showed an IC50 of 7.7 nM. In the case of `COc1cc2c(NCc3ccccn3)c3c(nc2cc1OCCCN1CCCC1)CCC3` [Entry 54, 7-methoxy-N-[pyridin-2-yl)methyl]-6-[3-(pyrrolidin-1-yl)propoxy]-1H,2H,3H-cyclopenta[b]quinolin-9-amine formate], the IC50 is reported as 60.1 nM. `COc1cc2c(NCc3ccccc3)c3c(nc2cc1OCCCN1CCCC1)CCC3` [Entry 46, N-benzyl-7-methoxy-6-[3-(pyrrolidin-1-yl)propoxy]-1H,2H,3H-cyclopenta[b]quinolin-9-amine formate] showed an IC50 of 36 nM. With `COc1cc2c(NC(C)C)c3cccc(F)c3nc2cc1OCCCN1CCCC1` [Entry 120, 5-fluoro-2-methoxy-N-(propan-2-yl)-3-[3-(pyrrolidin-1-yl)propoxy]acridin-9-amine formate] the IC50 was 62 nM. Work on `COc1cc2c(NC3CC4CCC(C3)O4)c3ccccc3nc2cc1OCCCN1CCCC1` (stereo not shown) [Entry 80, 2-methoxy-N-{8-oxabicyclo[3.2.1]octan-3-yl}-3-[3-(pyrrolidin-1-yl)propoxy]acridin-9-amine formate] yielded an IC50 of 65.3 nM. For `COc1cc2c(NC3CCC(=O)N(C)C3)c3c(nc2cc1OCCCN1CCCC1)CCC3` (stereo not shown) [Entry 58, 5-({7-methoxy-6-[3-(pyrrolidin-1-yl)propoxy]-1H,2H,3H-cyclopenta[b]quinolin-9-yl}amino)-1-methylpiperidin-2-one trifluoroacetate], the IC50 was 46.4 nM. “2-ethoxy-N-methyl-3-[3-(pyrrolidin-1-yl)propoxy]acridin-9-amine formate and 3-ethoxy-N-methyl-2-[3-(pyrrolidin-1-yl)propoxy]acridin-9-amine formate (1:1) [Entry 118]” showed an IC50 of 75.5 nM. `COc1cc2c(NCCO)c3c(nc2cc1OCCCN1CCCC1)CCC3` [Entry 34, 2-({7-methoxy-6-[3-(pyrrolidin-1-yl)propoxy]-1H,2H,3H-cyclopenta[b]quinolin-9-yl}amino)ethan-1-ol formate] showed an IC50 of 7.6 nM. Compound `CNc1c2ccccc2nc2cc(OCCCN3CCC(F)C3)c(OC)cc12` (stereo not shown) [Entry 117, 3-[3-(3-fluoropyrrolidin-1-yl)propoxy]-2-methoxy-N-methylacridin-9-amine formate] has an IC50 of 139 nM. For `COc1cc2c(NC3CCN(C(C)C)CC3)c3c(nc2cc1OCCCN1CCCC1)CCCC3` [Entry 16, 7-methoxy-N-[1-(propan-2-yl)piperidin-4-yl]-6-[3-(pyrrolidin-1-yl)propoxy]-1,2,3,4-tetrahydroacridin-9-amine trifluoroacetate], the IC50 was 11 nM. `CNc1c2ccccc2nc2cc(OCCCN3CCCC3)c(OC)cc12` [Entry 1, 2-methoxy-N-methyl-3-[3-(pyrrolidin-1-yl)propoxy]acridin-9-amine] gave an IC50 of 1.3 nM. `COc1cc2c(NC3CCN(C)CC3)c3ccccc3nc2cc1OCCCN1CCCC1` [Entry 4, 2-methoxy-N-(1-methylpiperidin-4-yl)-3-[3-(pyrrolidin-1-yl)propoxy]acridin-9-amine trifluoroacetate] was tested, and the IC50 was 1.1 nM.
